The results in this text go back to patent US11289729B2, “Redox flow batteries and compounds for battery application” (THE TRUSTEES OF COLUMBIA UNIVERSITY IN THE CITY OF NEW YORK, priority 2017, dated 2022).

“And” between values parts separate entries of the source, which are not always exact repeats. Equal values may be shown once.

Data set [1] is described as follows: Stability of charged spiro and cyclopropenium compounds on storage. The class given is physicochemical. An excerpt: The state of charge on discharge was 87%. […] Additionally, the calendar fade of the molecule was improved over certain previously reported high voltage organic radicals.
Data set [2] in a line: Crossover of active molecules through the cellulose dialysis membrane in an H-cell (UV-Vis). Type of data set: physicochemical. As for the experimental part: The present example tested whether the membrane is amenable to large temperature excursions and to higher-voltage second generation compounds. The membrane was exposed to high (110° C.) and low (−20° C.) temperatures, as well as to strong reducing and oxidizing conditions, after which, dialysis was performed. Details are disclosed below. For example, the membrane was soaked in a solution of sodium naphthalenide (approximately −3.0 V vs Fc^0/+) and subsequently assembled an H-cell with this membrane. One chamber of the H-cell was filled with [PDI][TFSI]2 in acetonitrile (FIG. 1), while the other contained pure acetonitrile. [PDI][TFSI]2 was used for crossover experiments due to its smaller sized and strong absorption. […] Moreover, typical aqueous cells would not be operable at these extreme temperatures.
The present example next quantitatively assessed the impact of these treatments on the membrane's performance under battery operating conditions. […] To quantify the amount of crossover, UV-Vis spectra of the [Fc4] chamber was taken. […] Additionally, the low concentration cell above (FIG. 7D) was dismantled after cycling and checked for crossover. […] The key finding is that the cellulose based membrane is effective in organic solvents over long periods of time, stable to a >3 V voltage window, and stable to temperatures outside the range available for aqueous systems.
The membranes were soaked in water for 1 h before treatment. For high temperature, the membrane was rinsed with propylene carbonate, placed in propylene carbonate and heated to 110° C. overnight in a vial. For low temperature, the membrane was rinsed with acetonitrile and placed in acetonitrile in a vial in a −20° C. freezer overnight. For oxidizing conditions, the membrane was rinsed with acetonitrile and stirred in nitrosonium tetrafluoroborate (NOBF4, 0.1 M in acetonitrile) for 4 h. For reducing conditions, the membrane was rinsed with anhydrous diglyme, placed in anhydrous diglyme, and sparged for 3 h before being brought into a glove box. It was rinsed in a fresh solution of diglyme before being added to a solution of sodium naphthalenide (0.1 M in diglyme) in a glove box for 1 h. The sodium naphthalenide was a persistent dark green the entire time indicating no quenching of the reagent. A control where the membrane was only soaked in water and rinsed with acetonitrile was also performed.
Following these conditions, [PDI][TFSI]2 (20 mg) and LiPF6 (60 mg) in acetonitrile were added to one side of the H-cell. […] The blank side was colorless for all conditions except nitrosonium tetrafluoroborate, where a minimal amount of fluorescence could be seen. The control H-cell was monitored for crossover for a further 12 days, at which point the absorbance was measured by UV-visible spectroscopy and the amount determined using the molar absorptivity of [PDI][TFSI]2 (0.05% over 12 days, FIG. 10 and FIG. 11).
After these qualitative experiments, membranes treated to the same four conditions as mentioned above were brought into the glovebox in degassed anhydrous solvent and used for cycling experiments with 19 mg [PDI][TFSI]2 and 9 mg [Fc4] in 0.5M LiPF6 (FIG. 9C). The cells were run at a 1 C current (0.7 mA) for 12 cycles. At the end of the experiment, the UV-visible spectrum was taken of the [Fc4] side. […]

Data set [3] in a line: Solubility / maximum concentration of the electrolytes in organic solvent.
Where [4] appears, read: acetonitrile vs pure acetonitrile, stirring overnight.
Setting [5] is: cycling H-cell, 1 C, 12 cycles, 0.5 M LiPF6, UV-Vis of [Fc4] side.

In the case of dimethylpiperidine cyclopropenium, the “persistence of charged state” value in data set [1] (3 months out of glovebox) is given as “still charged”.
With “perylene diimide trifluoromethane sulfonimide [[PDI][TFSI]2]”, in data set [2] (setting [4]), the “visible crossover, NOBF4-treated membrane” value is “slight fluorescence from crossover” and the “visible crossover, sodium naphthalenide-treated membrane” value is recorded as “no detectable crossover”. The “crossover, control membrane” value in data set [2] (control H-cell, acetonitrile with LiPF6, over 12 days) amounted to 0.05%. In addition, in data set [2] (setting [5]), the “crossover, NOBF4-treated (oxidizing) membrane” value turned out to be 1.25%; the “crossover, cold (−20° C.) treated membrane” value was < 0.05% and 0.032%; the “crossover, hot (110° C.) treated membrane” value was < 0.05% and 0.028%; the “crossover, sodium naphthalenide-treated (reducing) membrane” value was < 0.05% and 0.038%. Also, in data set [2] (low concentration cell dismantled after >30 days and >250 cycles), the “crossover after long-term cycling” value worked out at 0.2%. The “concentration accessible in acetonitrile” value in data set [3] was 1 M electron.
Consider “spiro-ethylphthalimide [spirophthalimide]”, for which the “degradation in charged state (1H NMR)” value in data set [1] (1 week of charge) is “No degradation”.
